Results: ChEMBL document CHEMBL1201862, “PubChem BioAssay data set” (2004)
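Five compound concentrations were applied to cells in 96-well plates for 48 hours; endpoints were derived by simple linear interpolation of the resulting dose-response curve. Here, GI50 denotes the concentration required for 50% inhibition of growth.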 The source made the active and inactive calls. Cut-off read from the data, not from the text of the source: active = GI50 up to about 1.1 µM and inactive = higher.

Legend:
Assay in all cases: NCI anticancer screen, dose series, 48 h
SF-539 = test system: SF-539
OVCAR-5 = test system: OVCAR-5
OVCAR-3 = test system: OVCAR-3
SF-268 = test system: SF-268
EKVX = test system: EKVX
KM12 = test system: KM12
SK-MEL-28 = test system: SK-MEL-28
BT-549 = test system: BT-549
SW-620 = test system: SW-620
NCI-H23 = test system: NCI-H23
A498 = test system: A498
SK-MEL-5 = test system: SK-MEL-5
UO-31 = test system: UO-31
MCF7 = test system: MCF7
CCRF-CEM = test system: CCRF-CEM
RXF 393 = test system: RXF 393
M14 = test system: M14
UACC-257 = test system: UACC-257
U-251 = test system: U-251
MOLT-4 = test system: MOLT-4
HOP-92 = test system: HOP-92
HT-29 = test system: HT-29
LOX IMVI = test system: LOX IMVI
SNB-19 = test system: SNB-19
HCT-116 = test system: HCT-116
NCI/ADR-RES = test system: NCI/ADR-RES
COLO 205 = test system: COLO 205
SN12C = test system: SN12C
PC-3 = test system: PC-3
Hs-578T = test system: Hs-578T
RPMI-8226 = test system: RPMI-8226
SK-MEL-2 = test system: SK-MEL-2
OVCAR-8 = test system: OVCAR-8
ACHN = test system: ACHN
A549 = test system: A549
DU-145 = test system: DU-145
SK-OV-3 = test system: SK-OV-3
UACC-62 = test system: UACC-62
786-0 = test system: 786-0
IGROV-1 = test system: IGROV-1
NCI-H460 = test system: NCI-H460
MDA-MB-231 = test system: MDA-MB-231
MDA-MB-435 = test system: MDA-MB-435
HL-60 = test system: HL-60
OVCAR-4 = test system: OVCAR-4
NCI-H522 = test system: NCI-H522
HOP-62 = test system: HOP-62
SR = test system: SR
SF-295 = test system: SF-295
Malme-3M = test system: Malme-3M
CAKI-1 = test system: CAKI-1
K562 = test system: K562
NCI-H226 = test system: NCI-H226
HCT-15 = test system: HCT-15
T47D = test system: T47D
MDA-N = test system: MDA-N
TK-10 = test system: TK-10
HCC 2998 = test system: HCC 2998
SNB-75 = test system: SNB-75

Measured: GI50

CCCCn1c(C)c(C(=O)CC)c(C(=O)NCCN2CCN(c3ccccc3Cl)CC2)c1C
15.7 µM: HCT-15
inactive: SF-539 18.1 µM | OVCAR-5 17.5 µM | OVCAR-3 21.1 µM | SF-268 18.2 µM | EKVX 16.3 µM | KM12 19.8 µM | SK-MEL-28 20.9 µM | BT-549 16 µM | SW-620 47.1 µM | NCI-H23 14.6 µM | A498 17.5 µM | SK-MEL-5 14.1 µM | UO-31 12.8 µM | MCF7 18.8 µM | CCRF-CEM 55.1 µM | RXF 393 19.9 µM | M14 17.6 µM | UACC-257 13.4 µM | U-251 16.6 µM | MOLT-4 18.7 µM | HOP-92 14.1 µM | HT-29 13.4 µM | LOX IMVI 19.3 µM | SNB-19 15.8 µM | HCT-116 14.3 µM | NCI/ADR-RES 16 µM | COLO 205 13.9 µM | SN12C 16.1 µM | PC-3 16.1 µM | Hs-578T 23.5 µM | RPMI-8226 16.3 µM | SK-MEL-2 16.7 µM | OVCAR-8 17.3 µM | ACHN 16.4 µM | A549 16.3 µM | DU-145 20.1 µM | SK-OV-3 19.4 µM | UACC-62 15.8 µM | 786-0 16.1 µM | IGROV-1 16.7 µM | NCI-H460 15.3 µM | MDA-MB-231 17.1 µM | MDA-MB-435 18.9 µM | HL-60 15.2 µM | OVCAR-4 17.6 µM | NCI-H522 17.4 µM | HOP-62 20.2 µM | SR 13.7 µM | SF-295 17.9 µM | Malme-3M 18.1 µM | CAKI-1 16.5 µM | K562 26.7 µM | NCI-H226 20.3 µM | T47D 21.8 µM | MDA-N 16.2 µM | TK-10 19.7 µM

COC(=O)CCc1cc(OC)c(O)c(C(Cc2ccc(OC)c(OC)c2)C(=O)OC)c1 (stereo not given)
> 100 µM: HCT-15
inactive: SF-539 > 100 µM | OVCAR-5 > 100 µM | OVCAR-3 > 100 µM | SF-268 > 100 µM | EKVX > 100 µM | KM12 > 100 µM | SK-MEL-28 > 100 µM | BT-549 > 100 µM | SW-620 > 100 µM | NCI-H23 > 100 µM | A498 > 100 µM | SK-MEL-5 > 100 µM | UO-31 > 100 µM | MCF7 > 100 µM | CCRF-CEM > 100 µM | RXF 393 > 100 µM | M14 > 100 µM | UACC-257 > 100 µM | U-251 > 100 µM | MOLT-4 > 100 µM | HOP-92 > 100 µM | HT-29 > 100 µM | LOX IMVI > 100 µM | HCC 2998 > 100 µM | SNB-19 > 100 µM | HCT-116 > 100 µM | NCI/ADR-RES > 100 µM | COLO 205 > 100 µM | SN12C > 100 µM | PC-3 > 100 µM | Hs-578T > 100 µM | RPMI-8226 > 100 µM | SK-MEL-2 > 100 µM | OVCAR-8 > 100 µM | ACHN > 100 µM | A549 > 100 µM | DU-145 > 100 µM | SK-OV-3 > 100 µM | UACC-62 > 100 µM | 786-0 > 100 µM | IGROV-1 > 100 µM | NCI-H460 > 100 µM | MDA-MB-231 > 100 µM | MDA-MB-435 > 100 µM | HL-60 > 100 µM | OVCAR-4 > 100 µM | NCI-H522 > 100 µM | HOP-62 > 100 µM | SR > 100 µM | SF-295 > 100 µM | Malme-3M > 100 µM | K562 > 100 µM | NCI-H226 > 100 µM | T47D > 100 µM | SNB-75 > 100 µM | MDA-N > 100 µM | TK-10 > 100 µM
